# US8779146B2, “Cilostazol cocrystals and compositions” (Nuformix Limited, priority 2010, dated 2014)
# Where two headings read alike, the source gives them in different places.
# Tests used:
# [1] = Gravimetric vapour sorption (GVS) moisture sorption isotherm; type: physicochemical; conditions: for moisture reversibly adsorbed: across the 0-90% relative humidity range at 25° C. under nitrogen; for solid form by XRPD analysis after completion of the isotherm: after GVS cycle 0-90% RH; for solid form by XRPD analysis after completion of the isotherm / hygroscopicity: 25° C.; for hygroscopicity: conclusion from GVS isotherm, 0-90% RH
# Method: Sorption isotherms were obtained using a SMS DVS Intrinsic moisture sorption analyser, controlled by DVS Intrinsic Control software v1.0.0.30. The sample temperature was maintained at 25° C. by the instrument controls. The humidity was controlled by mixing streams of dry and wet nitrogen, with a total flow rate of 200 ml·min^−1 The relative humidity was measured by a calibrated Rotronic probe (dynamic range of 1.0-100% RH), located near the sample. The weight change, (mass relaxation) of the sample as a function of % RH was constantly monitored by the microbalance (accuracy ±0.005 mg).
# Typically 5-20 mg of sample was placed in a tared mesh stainless steel basket under ambient conditions. The sample was loaded and unloaded at 40% RH and 25° C. (typical room conditions). A moisture sorption isotherm was performed as outlined in Table 1 (2 scans giving 1 complete cycle). The standard isotherm was performed at 25° C. at 10% RH intervals over a 0.5-90% RH range. Data analysis was undertaken in Microsoft Excel using DVS Analysis Suite v6.0.0.7. The sample was recovered after completion of the isotherm and re-analyzed by XRPD.
# [2] = dog, in vivo, po, 100 mg
# Method: (§1) A crossover study was carried out using 5 male beagle dogs with a washout period of 5 days between each treatment. Prior to dosing, the dogs were fasted overnight. The capsules were accurately filled with the amount of cilostazol or the corresponding cocrystal that was equivalent to 100 mg cilostazol. The capsules were orally administered to the dogs followed by about 10 mL of water. Food (about 250 g) was provided 4 hours post-dose to all animals.
# (§2) Blood samples were collected at pre-dose, 15 and 30 minutes, and 1, 2, 3, 4, 6, 8, 10, 12 and 24 hour post-dose (12 time points) following oral dose administration. Approximately 0.8 ml of whole blood was withdrawn from the cephalic vein and placed in labelled tubes containing sodium heparin as anticoagulant (20 μL of 400 IU/mL sodium heparin solution per mL of blood). Plasma was separated by centrifuging the whole blood at about 2500 g for 10 minutes at 4° C. Separated plasma was stored below −70° C. until analysis.
# (§3) A fit for purpose LC-MS/MS method was used for the determination of the cilostazol concentrations in the plasma samples. Pharmacokinetic parameters from individual samples were calculated using the non-compartmental analysis tool of the WinNonlin® software (version 5.2). The area under the plasma concentration curve (AUC) was calculated using the linear trapezoidal rule. Peak plasma concentration (Cmax) and the time taken to reach the peak plasma concentration (Tmax) were the observed values.
# [3] = cited from earlier work
# [4] = low solubility, high permeability drug; cited from earlier work
# [5] = Pharmacokinetic study, oral capsule, crossover, fasted beagle dogs; conditions: male, dog, plasma, 100 mg
# Method: as §1, §2, §3
moisture reversibly adsorbed [1] [% w/w],solid form by XRPD analysis after completion of the isotherm [1],hygroscopicity [1],AUC [2] [ng·h/mL],Cmax [2] [ng/mL],Tmax [2] [h],Compound,solubility ([3]; in 0.1N HCl),solubility ([3]; in 0.1N NaOH),solubility ([3]; in ethanol),solubility ([3]; in methanol),solubility ([3]; in water),BCS class [4],AUC [5] [ng·h/mL],Cmax [5] [ng/mL],Tmax [5] [h]
< 0.3,unchanged,not hygroscopic,1216.37,471.42,1.00,O=C(O)c1cc(O)ccc1O.O=C1CCc2cc(OCCCCc3nnnn3C3CCCCC3)ccc2N1 [1:1 cilostazol gentisic acid cocrystal],,,,,,,,,
0.1,unchanged,not hygroscopic,,,,O.O=C(O)c1cc(O)ccc1O.O=C1CCc2cc(OCCCCc3nnnn3C3CCCCC3)ccc2N1,,,,,,,,,
,,,,,,"O=C1CCc2cc(OCCCCc3nnnn3C3CCCCC3)ccc2N1 [Cilostazol, 6-[4-(1-cyclohexyl-1H-tetrazol-5-yl)butoxy]-3,4-dihydro-2(1H)-quinolinone]",practically insoluble,practically insoluble,slightly soluble,slightly soluble,practically insoluble,Class II,371,81.5,2
